Laboratory results as given in patent publication US11191743B2, “Modulators of zinc activated cation channel” (Dignity Health, priority 2016, dated 2021).
“Also recorded” adds a separate entry of the source. Where two headings read alike, the source gives them in different places.

How the values were obtained:
nACh (α7) receptor = biological target: T1, nACh (α7) receptor (Homo sapiens, UniProt P36544); experiment: Application of NBT to other Cys-loop receptors; assay type: cell-based; conditions: listed as NBT
T1 construct: expressed in transfected cells
Excerpt: (§1) To date the only known agonist and antagonist for ZACN are Zn^2+ (agonist) and d-tubocurarine (antagonist).

GABAC (ρ1) receptor = biological target: T2, GABAC (ρ1) receptor (Homo sapiens, UniProt P24046); experiment: Application of NBT to other Cys-loop receptors; assay type: cell-based; conditions: listed as NBT
T2 construct: expressed in transfected cells
Excerpt: as §1

glycine (α1) receptor = biological target: T3, glycine (α1) receptor (Homo sapiens, UniProt P23415); experiment: Application of NBT to other Cys-loop receptors; assay type: cell-based; conditions: listed as NBT
T3 construct: expressed in transfected cells
T3 sequence (P23415 29-457): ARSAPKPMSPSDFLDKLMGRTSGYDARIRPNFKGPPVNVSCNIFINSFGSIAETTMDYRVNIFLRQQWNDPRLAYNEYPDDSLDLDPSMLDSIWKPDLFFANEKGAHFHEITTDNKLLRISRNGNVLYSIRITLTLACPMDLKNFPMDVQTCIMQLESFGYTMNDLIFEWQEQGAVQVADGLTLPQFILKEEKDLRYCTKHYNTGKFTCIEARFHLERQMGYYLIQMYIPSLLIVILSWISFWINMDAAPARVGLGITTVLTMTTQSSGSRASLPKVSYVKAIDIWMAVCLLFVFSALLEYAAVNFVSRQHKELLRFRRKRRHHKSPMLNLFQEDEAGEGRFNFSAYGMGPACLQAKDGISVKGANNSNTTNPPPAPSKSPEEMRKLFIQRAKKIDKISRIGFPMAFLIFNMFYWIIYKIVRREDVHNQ
Excerpt: as §1

GABAA (α6β2δ) receptor = biological target: T4, GABAA (α6β2δ) receptor (Homo sapiens, UniProt O14764+P47870+Q16445); experiment: Application of NBT to other Cys-loop receptors; assay type: cell-based; conditions: listed as NBT
T4 construct: expressed in transfected cells
Excerpt: as §1

nACh (α4β2) receptor = biological target: T5, nACh (α4β2) receptor (Homo sapiens, UniProt P17787+P43681); experiment: Application of NBT to other Cys-loop receptors; assay type: cell-based; conditions: listed as NBT
T5 construct: expressed in transfected cells
Excerpt: as §1

[1] = biological target: T6, serotonin (5HT3A) receptor (Homo sapiens, UniProt P46098); experiment: Application of NBT to other Cys-loop receptors; assay type: cell-based; conditions: listed as NBT
T6 construct: expressed in transfected cells
T6 sequence (P46098 24-478): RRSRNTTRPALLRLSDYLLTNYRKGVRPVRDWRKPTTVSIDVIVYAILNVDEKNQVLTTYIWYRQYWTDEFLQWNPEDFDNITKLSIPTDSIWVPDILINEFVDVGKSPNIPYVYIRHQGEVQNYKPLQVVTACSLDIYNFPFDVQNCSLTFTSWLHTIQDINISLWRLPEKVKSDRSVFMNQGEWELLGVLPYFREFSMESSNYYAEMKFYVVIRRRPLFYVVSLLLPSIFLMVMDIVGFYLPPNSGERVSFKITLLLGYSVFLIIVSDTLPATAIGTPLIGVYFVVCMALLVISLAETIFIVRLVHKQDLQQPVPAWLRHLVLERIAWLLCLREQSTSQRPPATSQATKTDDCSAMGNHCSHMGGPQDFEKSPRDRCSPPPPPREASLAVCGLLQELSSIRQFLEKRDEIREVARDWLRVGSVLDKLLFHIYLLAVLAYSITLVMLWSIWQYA
Excerpt: as §1

GABAA (α1β2γ2) receptor = biological target: T7, GABAA (α1β2γ2) receptor (Homo sapiens, UniProt P14867+P18507+P47870); experiment: Application of NBT to other Cys-loop receptors; assay type: cell-based; conditions: listed as NBT
T7 construct: expressed in transfected cells
Excerpt: as §1

ZACN [2] = biological target: T8, ZACN (Homo sapiens, UniProt Q401N2); experiment: Two-electrode voltage-clamp, ZACN expressed in Xenopus laevis oocytes: agonist-induced current; assay type: cell-based; parameters: host or cells: Xenopus laevis oocytes injected with cRNA (pGEMHE vector, T7 transcript)
T8 sequence (Q401N2 26-412): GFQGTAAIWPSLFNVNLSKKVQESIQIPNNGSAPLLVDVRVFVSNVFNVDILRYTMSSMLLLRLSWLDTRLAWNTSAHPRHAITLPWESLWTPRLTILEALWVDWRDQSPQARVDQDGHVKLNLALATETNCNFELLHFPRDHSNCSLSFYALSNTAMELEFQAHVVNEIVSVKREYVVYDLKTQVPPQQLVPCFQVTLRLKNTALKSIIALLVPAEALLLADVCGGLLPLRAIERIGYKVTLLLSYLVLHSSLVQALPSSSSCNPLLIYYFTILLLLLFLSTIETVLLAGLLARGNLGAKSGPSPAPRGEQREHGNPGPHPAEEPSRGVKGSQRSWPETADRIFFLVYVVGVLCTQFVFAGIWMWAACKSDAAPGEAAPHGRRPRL
Excerpt: The cDNA encoding wild type, human ZACN was purchased from OpenBiosystems, and cloned into the pGEMHE vector in the T7 orientation. For cRNA synthesis, cDNA templates were PCR amplified using primers that cover the M13 forward and reverse regions and high fidelity Phusion DNA polymerase (New England Biolab, Ipswich, Mass., USA). PCR products were then purified and served as templates for cRNA synthesis. cRNAs were transcribed by T7 RNA polymerase (Promega, Madison, Wis., USA) using standard in vitro transcription protocols. After digestion of the DNA template by RNase-free DNase I, cRNAs were purified and resuspended in diethyl pyrocarbonate (DEPC)-treated water. cRNA integrity was examined on a 1% agarose gel, and cRNA concentration was determined by optical density measurements at 260 nm using an Eppendorf Biophotometer.
Oocytes were harvested from female Xenopus laevis (Xenopus I, Ann Arbor, Mich., USA), using the protocol “Xenopus Care and Use” approved by the Institutional Animal Care and Use Committee of the St. Joseph's Hospital and Medical Center. Stage VI oocytes were selected and incubated at 16° C. before injection. Micropipettes for injection were pulled from borosilicate glass (Drummond Scientific, Broomall, Pa., USA) on a Sutter P87 horizontal puller, and the tips were cut with forceps to ≈40 μm in diameter. cRNAs encoding ZACN was drawn up into the micropipette and injected into oocytes with a Nanoject micro-injection system (Drummond Scientific) in a total volume of ˜60 nl and total cRNA of ˜20 ng for each oocyte.
Two to 5 days after injection, oocytes expressing ZACN were placed in a home-made, small volume chamber and a 16-channel manifold, continuously perfused with oocyte Ringer's solution (OR2), which consisted of (in mM) 92.5 NaCl, 2.5 KCl, 1 CaCl2, 1 MgCl2 and 5 HEPES, pH 7.5. ValveLink 16 computer-controlled perfusion system was used to switch solutions between the OR2 and a test solution. The perfusion chamber was grounded through an agar salt bridge to avoid alterations in junction potential between the Ag/AgCl grounding electrode and solution when solution/drug changes occurred. Oocytes were voltage-clamped at −70 mV to measure agonist-induced currents using an AxoClamp 900A amplifier (Axon Instruments, Foster City, Calif., USA). The current signal was low-pass filtered at 20 Hz with the built-in 4-pole low-pass Bessel filter and digitized at 100 Hz with a Digidata1440a and pClamp 10 software (Molecular Devices).
For each oocyte, concentration-inhibition curves for drug-induced inhibition of zinc-activated current responses or concentration response curves for agonist-induced current of the ZACN were fit to the Hill equation using least squares methods (Prism 6.0, GraphPad Software, Inc., San Diego, Calif., USA) to derive IC50 or EC50 values (the concentration required for inducing a half maximal current), Hill coefficients (the slope factor), and maximum current levels in absolute terms. Current levels in each oocyte were normalized to the maximum current in the absence of the inhibitor, allowing normalized data to be averaged across multiple oocytes and to be fit again to the Hill equation. All data are presented as mean±SEM (standard error).

[3] = system: iTreg-induced immunosuppression of T cell division; assay type: cell-based, human
Description: Live Treg cells (CD4+CD25^high) and conventional T cells (Tconv cells) (CD4+CD25−) are obtained by immunomagnetic cell isolation kit from human iTreg. Tconv cells are labeled with CFSE (10 uM for 10 min). After washing, the labeled cells are distributed into multiple wells (1×10^5/well) in a round bottom 96-well plate with various numbers (2-fold serial dilutions from 1×10^5/well) of Treg cells in each well. The mixed cells (Treg and Tconv with different ratios) are co-cultured for 72 h in the presence of anti-CD3/CD28-coated sulfate latex beads. The intensity of CFSE fluorescence that declines upon division of the labeled cells is measured by flow cytometry.
As disclosed throughout the disclosure, and specifically in FIG. 7, Zinc and/or d-tubocurarine has an influence on iTreg suppression function. CFSE Immunosuppression Assay uses a cell permeable reactive fluorescent dye, CFSE. After entering cells, CFSE interacts with intracellular proteins, and permanently stain the cell. The fluorescence intensity will decrease along with the T cell division.

ZACN [4] = biological target: T8, ZACN; parameters: host or cells: HEK cells (exogenous expression); conditions: cited from earlier work
iTreg cells = experiment: Calcium influx assay in Treg cells; assay type: cell-based, human
Description: Treg cells were loaded with calcium sensitive fluorescent dye X-Rhod-1 AM (cell permeant) (2 μM) for 60 min at room temperature. After wash, the cells were placed onto a glass-bottom petri dish with coated glass surface to allow cells attached to the glass surface. The fluorescence was detected using a microscope-based detection system with a different filter set (excitation filter ET560/40x, T585LPxr dichroic mirror, and ET630/75m emission filter). The fluorescence signal, first in the absence and then in the presence of a ZACN agonist, was low-pass filtered with a signal filter at 1 Hz and digitized with a Digidata1440 digitizer at 10 Hz.

T1 sequence (P36544 23-502): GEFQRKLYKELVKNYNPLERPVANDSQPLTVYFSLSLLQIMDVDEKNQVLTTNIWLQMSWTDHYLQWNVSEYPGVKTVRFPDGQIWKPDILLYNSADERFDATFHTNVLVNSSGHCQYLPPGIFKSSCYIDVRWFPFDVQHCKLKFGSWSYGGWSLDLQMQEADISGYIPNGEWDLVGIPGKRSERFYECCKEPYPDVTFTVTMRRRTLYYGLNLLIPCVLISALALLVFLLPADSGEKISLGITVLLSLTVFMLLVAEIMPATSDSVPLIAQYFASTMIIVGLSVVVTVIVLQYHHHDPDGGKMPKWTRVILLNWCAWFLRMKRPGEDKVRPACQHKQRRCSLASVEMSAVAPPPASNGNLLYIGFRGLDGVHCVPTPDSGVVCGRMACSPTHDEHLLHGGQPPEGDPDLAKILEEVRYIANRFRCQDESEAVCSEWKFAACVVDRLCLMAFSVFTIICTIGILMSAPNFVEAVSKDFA
T4 sequence (Q16445 20-453): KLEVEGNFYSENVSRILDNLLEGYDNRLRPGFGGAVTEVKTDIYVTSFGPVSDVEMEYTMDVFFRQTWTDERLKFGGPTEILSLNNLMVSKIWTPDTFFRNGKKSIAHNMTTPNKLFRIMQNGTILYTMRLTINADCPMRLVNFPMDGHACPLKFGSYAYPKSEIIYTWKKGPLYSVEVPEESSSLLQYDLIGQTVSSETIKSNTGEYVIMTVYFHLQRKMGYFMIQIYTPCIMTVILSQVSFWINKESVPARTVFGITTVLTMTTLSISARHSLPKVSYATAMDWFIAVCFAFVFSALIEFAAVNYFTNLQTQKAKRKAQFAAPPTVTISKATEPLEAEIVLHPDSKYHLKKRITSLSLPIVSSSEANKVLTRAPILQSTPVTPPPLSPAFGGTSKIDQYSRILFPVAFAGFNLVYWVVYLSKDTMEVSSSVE
T4 sequence (P47870 25-512 limits assumed): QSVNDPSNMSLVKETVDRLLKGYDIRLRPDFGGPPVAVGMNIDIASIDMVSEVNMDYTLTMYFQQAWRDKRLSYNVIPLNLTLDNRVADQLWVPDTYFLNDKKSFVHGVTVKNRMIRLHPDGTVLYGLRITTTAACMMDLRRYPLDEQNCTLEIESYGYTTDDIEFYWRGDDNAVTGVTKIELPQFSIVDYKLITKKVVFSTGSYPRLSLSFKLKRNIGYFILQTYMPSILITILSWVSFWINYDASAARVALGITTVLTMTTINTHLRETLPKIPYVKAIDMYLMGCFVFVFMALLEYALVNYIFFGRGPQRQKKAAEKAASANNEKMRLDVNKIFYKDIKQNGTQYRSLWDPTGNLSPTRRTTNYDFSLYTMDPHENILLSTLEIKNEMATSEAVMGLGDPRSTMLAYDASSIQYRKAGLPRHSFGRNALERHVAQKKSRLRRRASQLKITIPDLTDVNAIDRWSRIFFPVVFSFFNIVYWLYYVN
T4 sequence (O14764 17-452 limits assumed): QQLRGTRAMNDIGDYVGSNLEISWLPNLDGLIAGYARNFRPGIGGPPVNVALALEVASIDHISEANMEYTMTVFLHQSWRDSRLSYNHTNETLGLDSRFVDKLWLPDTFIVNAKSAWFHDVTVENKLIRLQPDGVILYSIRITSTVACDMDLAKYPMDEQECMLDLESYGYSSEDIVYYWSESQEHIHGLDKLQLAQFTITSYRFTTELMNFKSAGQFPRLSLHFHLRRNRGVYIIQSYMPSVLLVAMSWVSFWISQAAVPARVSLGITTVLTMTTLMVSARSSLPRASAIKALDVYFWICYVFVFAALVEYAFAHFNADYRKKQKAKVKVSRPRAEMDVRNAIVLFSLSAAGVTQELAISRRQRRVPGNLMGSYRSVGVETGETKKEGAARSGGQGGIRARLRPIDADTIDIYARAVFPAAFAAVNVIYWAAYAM
T5 sequence (P43681 29-627): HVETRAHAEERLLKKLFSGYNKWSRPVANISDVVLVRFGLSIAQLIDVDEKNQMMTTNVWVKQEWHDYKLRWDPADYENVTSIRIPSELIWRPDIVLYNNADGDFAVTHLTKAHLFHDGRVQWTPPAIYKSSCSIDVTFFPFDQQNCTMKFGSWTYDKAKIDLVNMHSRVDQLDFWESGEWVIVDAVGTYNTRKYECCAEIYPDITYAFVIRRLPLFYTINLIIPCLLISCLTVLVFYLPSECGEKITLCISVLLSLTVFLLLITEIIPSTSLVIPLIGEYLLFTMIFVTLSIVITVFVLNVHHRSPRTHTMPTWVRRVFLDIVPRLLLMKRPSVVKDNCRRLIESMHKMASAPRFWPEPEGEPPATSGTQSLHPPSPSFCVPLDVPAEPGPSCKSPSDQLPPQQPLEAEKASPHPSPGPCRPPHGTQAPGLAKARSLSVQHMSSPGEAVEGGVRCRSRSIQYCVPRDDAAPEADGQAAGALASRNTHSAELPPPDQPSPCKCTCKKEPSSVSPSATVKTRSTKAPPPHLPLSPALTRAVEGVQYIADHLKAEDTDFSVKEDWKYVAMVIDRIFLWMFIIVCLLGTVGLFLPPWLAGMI
T5 sequence (P17787 26-502): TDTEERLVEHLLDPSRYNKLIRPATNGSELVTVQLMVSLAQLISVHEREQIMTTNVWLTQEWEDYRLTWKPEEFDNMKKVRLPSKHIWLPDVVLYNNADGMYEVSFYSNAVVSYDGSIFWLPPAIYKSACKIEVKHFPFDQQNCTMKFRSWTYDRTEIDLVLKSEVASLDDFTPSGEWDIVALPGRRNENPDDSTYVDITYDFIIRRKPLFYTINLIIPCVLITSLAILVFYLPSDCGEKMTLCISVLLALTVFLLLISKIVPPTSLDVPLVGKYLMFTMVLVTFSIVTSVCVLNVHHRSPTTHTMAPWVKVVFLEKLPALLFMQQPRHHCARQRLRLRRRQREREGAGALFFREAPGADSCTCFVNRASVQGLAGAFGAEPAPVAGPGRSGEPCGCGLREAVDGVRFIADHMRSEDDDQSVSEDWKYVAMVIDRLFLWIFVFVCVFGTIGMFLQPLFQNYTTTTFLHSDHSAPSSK
T7 sequence (P47870 25-512): as the sequence (P47870 25-512 limits assumed) above
T7 sequence (P18507 40-475): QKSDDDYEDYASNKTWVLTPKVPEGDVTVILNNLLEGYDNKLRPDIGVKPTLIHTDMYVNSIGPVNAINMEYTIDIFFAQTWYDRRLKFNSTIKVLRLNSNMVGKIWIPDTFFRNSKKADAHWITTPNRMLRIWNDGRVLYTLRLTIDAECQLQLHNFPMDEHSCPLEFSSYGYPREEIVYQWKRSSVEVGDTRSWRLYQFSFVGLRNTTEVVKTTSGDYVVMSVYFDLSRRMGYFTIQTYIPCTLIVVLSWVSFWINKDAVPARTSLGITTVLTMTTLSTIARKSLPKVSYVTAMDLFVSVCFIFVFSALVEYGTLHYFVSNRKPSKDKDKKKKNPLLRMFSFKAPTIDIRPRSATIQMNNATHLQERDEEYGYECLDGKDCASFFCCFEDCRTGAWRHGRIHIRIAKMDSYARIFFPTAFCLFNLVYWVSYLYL
T7 sequence (P14867 28-456): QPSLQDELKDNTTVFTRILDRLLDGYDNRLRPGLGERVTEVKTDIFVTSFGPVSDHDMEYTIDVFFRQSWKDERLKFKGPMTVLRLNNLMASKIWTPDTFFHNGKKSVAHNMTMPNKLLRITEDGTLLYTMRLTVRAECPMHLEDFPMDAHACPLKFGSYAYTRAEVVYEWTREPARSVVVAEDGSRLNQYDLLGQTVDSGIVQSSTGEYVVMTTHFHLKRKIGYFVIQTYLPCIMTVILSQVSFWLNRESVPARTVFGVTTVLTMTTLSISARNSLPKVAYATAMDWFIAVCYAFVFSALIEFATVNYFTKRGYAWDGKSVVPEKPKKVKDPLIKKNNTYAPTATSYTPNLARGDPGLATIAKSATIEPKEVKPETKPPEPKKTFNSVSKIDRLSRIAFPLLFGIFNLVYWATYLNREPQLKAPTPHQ
T2 sequence (P24046 22-479): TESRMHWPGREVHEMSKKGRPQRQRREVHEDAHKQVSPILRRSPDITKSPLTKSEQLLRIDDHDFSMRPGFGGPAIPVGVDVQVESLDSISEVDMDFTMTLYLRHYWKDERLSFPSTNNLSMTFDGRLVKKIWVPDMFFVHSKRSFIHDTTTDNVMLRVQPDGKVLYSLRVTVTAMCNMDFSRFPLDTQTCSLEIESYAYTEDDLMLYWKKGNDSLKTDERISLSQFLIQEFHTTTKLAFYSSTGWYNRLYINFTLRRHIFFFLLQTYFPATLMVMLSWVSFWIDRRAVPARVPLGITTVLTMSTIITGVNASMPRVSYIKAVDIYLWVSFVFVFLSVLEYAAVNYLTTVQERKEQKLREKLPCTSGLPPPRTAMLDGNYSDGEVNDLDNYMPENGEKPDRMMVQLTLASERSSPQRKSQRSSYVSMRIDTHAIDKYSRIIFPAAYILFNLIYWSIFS

## COc1cc(-c2ccc(-n3nc(-c4ccccc4)n[n+]3-c3ccc([N+](=O)[O-])cc3)c(OC)c2)ccc1-n1nc(-c2ccccc2)n[n+]1-c1ccc([N+](=O)[O-])cc1 [Nitro Blue Tetrazolium]
nACh (α7) receptor
  response to NBT application: elicited no response; also recorded: no agonist or antagonist effect
GABAC (ρ1) receptor
  response to NBT application: elicited no response; also recorded: no agonist or antagonist effect
Glycine (α1) receptor
  response to NBT application: elicited no response; also recorded: no agonist or antagonist effect
GABAA (α6β2δ) receptor
  response to NBT application: elicited no response; also recorded: no agonist or antagonist effect
nACh (α4β2) receptor
  response to NBT application: elicited no response; also recorded: no agonist or antagonist effect
[1]
  response to NBT application: elicited no response; also recorded: no agonist or antagonist effect
GABAA (α1β2γ2) receptor
  response to NBT application: elicited no response; also recorded: no agonist or antagonist effect
ZACN [2]
  ZACN recovery from activation, compared with ZnCl2: much slower
  agonist activity on human ZACN (words): selective agonist

## [Cl-].[Cl-].[Zn+2] [ZnCl2, Zinc chloride]
[3]; high concentration, 1 mM
  effect on T cell viability: killed T cells
ZACN [4]; HEK cells, read-out: ZnCl2 EC50 for ZACN expressed in HEK cells
  EC50: 540 µM
ZACN [4]
  activation of ZACN in HEK cells: activated this receptor dose-dependently
iTreg cells
  intracellular calcium in iTreg cells: intracellular calcium increase
ZACN [2]
  ZnCl2 EC50 in Xenopus oocytes relative to HEK cells (fold greater): approximately 3 fold
  approximate EC80 Zn2+ concentration for this receptor: ~2000 µM
ZACN [2]; ZACN expressed in X. laevis oocytes, read-out: EC50 in activating ZACN
  EC50: 1640 ± 56 µM
ZACN [2]; ZACN expressed in X. laevis oocytes, read-out: EC50 on ZACN
  EC50: 1660 µM
ZACN [2]; read-out: approximate EC50 Zn2+ concentration for this receptor
  EC50: ~500 µM

## COc1cc2c3cc1Oc1cc(ccc1O)C[C@@H]1c4c(cc(OC)c(O)c4Oc4ccc(cc4)C[C@@H]3N(C)CC2)CC[N+]1(C)C [d-tubocurarine]
[3]
  influence on iTreg suppression function: inhibited the iTreg-induced immunosuppression of T cell division
ZACN [4]
  effect on spontaneous activity of ZACN in HEK cells: blocked
